Measurements taken from the NIST ThermoML archive (doi:10.1021/je200646r).
Numbers after ± are expanded uncertainties.

Experiments:
[1] = 293.15 K; 101.33 kPa; Liquid; Vibrating tube method
[2] = refractive index (Na D-line) (dimensionless); details: 293.15 K; 101.33 kPa; Liquid; Standard Abbe refractometry

Row | mass density [1] | refractive index [2] | Compound
1 | 749.6 ± 0.31 kg/m3 | 1.42155 ± 0.00045 | CCCCCCCCCCCC [dodecane]
2 | 792.05 ± 0.15 kg/m3 | 1.36162 ± 0.0004 | CCO [ethanol]
3 | 791.46 ± 0.15 kg/m3 | 1.32862 ± 0.0004 | CO [methanol]
4 | 785.46 ± 0.15 kg/m3 | 1.37709 ± 0.0004 | CC(C)O [propan-2-ol]
